Laboratory results reported in article PMC9506480, “Synthesis and Evaluation of Antiproliferative Activity, Topoisomerase IIα Inhibition, DNA Binding and Non-Clinical Toxicity of New Acridine–Thiosemicarbazone Derivatives” (Pharmaceuticals, 2022).

How the values were obtained:
[1] = tested on: HepG2 (human hepatocellular carcinoma); parameters: method as in Silva et al. (2018) [67]; details: ref Silva et al. (2018) [67]; cited from earlier work
[2] = tested on: B16-F10 (murine melanoma); parameters: method as in Silva et al. (2018) [67]; details: ref Silva et al. (2018) [67]; cited from earlier work
[3] = tested on: HCT116 (human colon carcinoma); parameters: method as in Silva et al. (2018) [67]; details: ref Silva et al. (2018) [67]; cited from earlier work
[4] = tested on: MRC-5 (human lung fibroblast); parameters: method as in Silva et al. (2018) [67]; details: ref Silva et al. (2018) [67]; cited from earlier work
[5] = tested on: CT DNA; assay: CT DNA binding by UV–Vis absorption spectroscopy; parameters: species or system calf; details: compound 40 µM, CT DNA 0 to 60 µM, Tris-HCl pH 7.4
Experimental: Absorption spectroscopy is a convenient and simple method for probing the binding of small molecules to DNA. The interaction of selected acridine–thiosemicarbazone derivatives with CT DNA was studied in the 220–500 nm region. Binding constants (Kb) were calculated from [DNA]/(Ɛa − Ɛf) versus [DNA], in which Kb is given by the ratio of slope to the intercept. […] For this, the regions chosen were the ones with the highest absorption intensity above 300 nm, due to the lower interference in DNA absorption in this region (ESI, Figures S50 and S53).
The concentration of the calf thymus, Type I, fibers (CT DNA), was determined based on the extinction coefficient of the absorbance at 260 nm (6600 L mol^−1 cm^−1). All compounds were dissolved in methanol (HPLC grade) at a concentration of 1 mmol L^−1 (stock solution). Working solutions were prepared by diluting the stock solution using Tris-HCl buffer (pH 7.4), with concentrations of 40 µmol L^−1. Under the optimized concentration, the compounds were titered with increasing concentrations of CT DNA (5 to 60 µmol L^−1). After shaking the system and incubating at room temperature for 10 min, the measurements were recorded using a JASCO J818 spectropolarimeter in the range of 220 to 500 nm at 298 K. The intrinsic bond constant (Kb) was obtained by adjusting the data according to the equation below:[DNA]/(Ɛa − Ɛf) = [DNA]/(Ɛb − Ɛf) + 1/[Kb (Ɛb − Ɛf)] where Ɛa, Ɛb and Ɛf are the apparent extinction coefficient of the compounds, the extinction coefficient of the compounds found in their […] and the extinction coefficient of the compounds when fully DNA-bound, respectively. The graph of [DNA]/(Ɛa − Ɛf) versus [DNA] was used to obtain the Kb from the ratio between the slope and the intercept, as previously described in the literature. Binding data were obtained using SigmaPlot 10.0 software. The study of possible DNA denaturation using methanol–water solutions was evaluated up to the maximum final concentration of methanol in the assays (6%) (ESI, Figures S50 and S53).

SMILES | IC50 [1] | IC50 [2] | IC50 [3] | IC50 [4] | Hypochromic (%) [5]
O=c1[nH]cc(F)c(=O)[nH]1 [5-FU, 5-fluorouracil] | 1.3 µM | 3.5 µM | 4.1 µM | 57.9 µM | –
CC[n+]1c(-c2ccccc2)c2cc(N)ccc2c2ccc(N)cc21 [EtBr, ethidium bromide, reference compound] | – | – | – | – | 35.15%
